Results on one molecule are retold here after ChEMBL document CHEMBL1201862, “PubChem BioAssay data set” (2004).

Activity calls are given as the source filed them. The rule behind the calls is not given here.

This assay addresses Serine/threonine-protein kinase 3 (Homo sapiens, UniProt Q13188). The assay is classed as functional.
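Note: measured as one member of a kinome-wide kinase panel.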

Serine/threonine-protein kinase 3, sequence (Q13188 whole entry): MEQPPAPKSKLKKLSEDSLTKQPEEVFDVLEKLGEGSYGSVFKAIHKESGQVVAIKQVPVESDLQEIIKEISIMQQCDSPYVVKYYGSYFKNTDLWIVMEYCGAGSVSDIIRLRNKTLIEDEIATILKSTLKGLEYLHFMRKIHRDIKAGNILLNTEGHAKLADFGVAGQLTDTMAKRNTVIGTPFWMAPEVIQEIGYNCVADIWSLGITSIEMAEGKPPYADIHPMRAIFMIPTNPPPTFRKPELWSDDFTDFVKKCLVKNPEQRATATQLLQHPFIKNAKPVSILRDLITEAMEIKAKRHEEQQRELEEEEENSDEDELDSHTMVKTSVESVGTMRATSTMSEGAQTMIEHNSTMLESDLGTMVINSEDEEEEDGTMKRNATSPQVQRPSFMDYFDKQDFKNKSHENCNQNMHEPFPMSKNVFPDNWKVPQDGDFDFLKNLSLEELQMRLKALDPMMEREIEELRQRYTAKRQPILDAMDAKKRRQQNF

For the molecule `NC1CCC(Nc2nccc(-c3c[nH]c4ncccc34)n2)CC1` (stereo unspecified), the inhibition constant Ki (commonly a measure of affinity in units of concentration, obtained from inhibition or displacement) was 39.8 nM (active).
